Earlier results as cited in patent publication US9169245B2, “Inhibitors of PDE4 enzyme and antagonists of muscarinic M3 receptor” (CHIESI FARMACEUTICI S.p.A., priority 2012, dated 2015).

How the values were obtained:
[1] = COPD patients, oral, given over 4 weeks
[2] = patients with severe disease, frequent exacerbations and mucus hypersecretion

O=C(Nc1c(Cl)cncc1Cl)c1ccc(OC(F)F)c(OCC2CC2)c1 [roflumilast]
reduction of the numbers of neutrophils in sputum [1]: 36% | improvement of FEV 1 [2]: approximately 50 ml | reduction of exacerbation [2]: about 15%
